Measurements reported in BindingDB's records for doi:10.1074/jbc.M113.503474 (The Ohio State University, 2013).
Values joined by “and” are separate entries in the source; they are usually repeats but may differ in a detail not shown here. Equal entries are not always repeated.

Target: Isoform Tau-F of Microtubule-associated protein tau (Human, UniProt P10636)
Assay: Tau Protein Assay
Conditions: pH 7.4
Procedure: The Tau content of fractions was determined by dot blot analysis using nitrocellulose membranes (0.2 μm porosity) as described previously [Cisek et al., Biophys. Chem., 170:25-33]. The membranes were blocked in 5% nonfat dry milk dissolved in blocking buffer (100 mM Tris-HCl, pH 7.4, and 150 mM NaCl) for 1 h and then incubated with primary antibody Tau5 at 1:5000 dilution for 2 h. Membranes were then washed three times with blocking buffer and incubated with horseradish peroxidase-linked secondary antibody for 2 h. After washing another three times with blocking buffer, membranes were imaged using the Enhanced Chemiluminescence Western blotting Analysis System (GE Healthcare, Buckinghamshire, UK) recorded on an Omega 12iC Molecular Imaging System and quantified using Ultra-Quant software (UltraLum, Claremont, CA, USA).

Chain of Isoform Tau-F of Microtubule-associated protein tau (P10636 as listed by the source): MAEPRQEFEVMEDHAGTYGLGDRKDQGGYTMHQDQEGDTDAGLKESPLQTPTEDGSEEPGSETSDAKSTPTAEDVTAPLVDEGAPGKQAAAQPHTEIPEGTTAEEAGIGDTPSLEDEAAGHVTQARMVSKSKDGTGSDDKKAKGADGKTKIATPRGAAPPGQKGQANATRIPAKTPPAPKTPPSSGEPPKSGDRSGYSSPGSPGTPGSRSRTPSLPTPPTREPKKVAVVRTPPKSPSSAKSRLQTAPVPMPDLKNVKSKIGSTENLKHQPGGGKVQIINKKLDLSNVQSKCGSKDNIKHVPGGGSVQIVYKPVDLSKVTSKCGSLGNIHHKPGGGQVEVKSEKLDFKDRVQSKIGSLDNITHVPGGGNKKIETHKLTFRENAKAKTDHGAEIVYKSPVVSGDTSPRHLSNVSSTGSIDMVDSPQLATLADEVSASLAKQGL

**Q.** How did the IC50 turn out when CCC(/C=C1\Sc2ccc(OC)cc2N1CCO)=C\c1sc2ccc(OC)cc2[n+]1CCO was run?
**A.** 290 nM

**Q.** N=c1ccc2nc3ccc(N)cc3sc-2c1 was tested. Which IC50 did it give?
**A.** > 10000 nM

**Q.** With C[N+](C)=c1ccc2nc3ccc(N)cc3sc-2c1 [AZURE A] as the molecule, how does the IC50 read?
**A.** > 10000 nM

**Q.** Which IC50 does the source give for CNc1ccc2nc3ccc(=[N+](C)C)cc-3sc2c1 [Azure B (11)] here?
**A.** 1280 nM

**Q.** Which IC50 does the source give for C/N=c1\ccc2nc3ccc(N)cc3sc-2c1 [Azure C (13)] here?
**A.** > 10000 nM

**Q.** CN(C)c1ccc(N=C2C=CC(=[N+](C)C)C=C2)cc1 [Bindschedler's green (19)] was tested. Which IC50 did it give?
**A.** 1090 nM

**Q.** Which IC50 does the source give for CN(C)c1ccc(C(=C2C=CC(=[N+](C)C)C=C2)c2ccc(N(C)C)cc2)cc1 [CHEBI:77181] here?
**A.** 490 nM

**Q.** With O=C1C=CC(=C(c2ccc(O)cc2)c2ccc(O)cc2)C=C1 [Corallin] as the molecule, how does the IC50 read?
**A.** > 10000 nM

**Q.** Which IC50 does the source give for CCCN1/C(=C/C=C/C2=[N+](CCC)c3ccccc3C2(C)C)C(C)(C)c2ccccc21 [Cyanines, 6] here?
**A.** 2570 nM

**Q.** For C1=C2\Sc3ccccc3N2CCCC[n+]2c(sc3ccccc32)/C=C/C=C2\Sc3ccccc3N2CCCC[n+]2c(sc3ccccc32)/C=C/1 [Cyanines, 9], which IC50 is on record?
**A.** 120 nM

**Q.** For N=C1C=CC(=C(c2ccc(N)cc2)c2ccc(N)cc2)C=C1 [Fuschin (17)], which IC50 is on record?
**A.** > 10000 nM

**Q.** Which IC50 does the source give for CN(C)c1ccc(C(=C2C=CC(=[N+](C)C)C=C2)c2ccccc2)cc1 [Malachite green (16)] here?
**A.** 520 nM

**Q.** Which IC50 does the source give for O=C(O)CCN1C(=O)/C(=C/c2ccc(-c3ccc(-c4ccccc4)cc3)o2)SC1=S [Rhodanines, 20A] here?
**A.** 170 nM

**Q.** Which IC50 does the source give for O=C(O)CCN1C(=O)/C(=C/c2ccc(-c3ccc(-c4ccc(C(=O)O)o4)cc3)o2)SC1=S [Rhodanines, 21A] here?
**A.** 170 nM

**Q.** How did the IC50 turn out when O=C(O)CCCCN1C(=O)/C(=C/c2ccc(-c3ccc(-n4cccc4)cc3)o2)SC1=S [Rhodanines, 22A] was run?
**A.** 210 nM

**Q.** O=C(O)CCCN1C(=O)/C(=C/c2ccc(-c3ccc(-n4cccc4)cc3)o2)SC1=S [Rhodanines, 23A] was tested. Which IC50 did it give?
**A.** 230 nM

**Q.** O=C(O)CCN1C(=O)/C(=C/c2ccc(-c3ccc(-n4cccc4)cc3)o2)SC1=S [Rhodanines, 24A] was tested. Which IC50 did it give?
**A.** 240 nM

**Q.** For O=C(O)CCCCN1C(=O)/C(=C/c2ccc(-c3ccc(-c4ccccc4)cc3)o2)SC1=S [Rhodanines, 25A], which IC50 is on record?
**A.** 240 nM

**Q.** Which IC50 does the source give for O=C(O)CCCCN1C(=O)/C(=C/c2ccc(-c3ccc(-c4ccc(C(=O)O)o4)cc3)o2)SC1=S [Rhodanines, 26A] here?
**A.** 260 nM

**Q.** Which IC50 does the source give for O=C(O)CC(C(=O)O)N1C(=O)/C(=C/c2ccc(-c3cccc(Cl)c3)o2)SC1=S (stereo unspecified) [Rhodanines, 27A] here?
**A.** 420 nM

**Q.** O=C(O)CCN1C(=O)/C(=C/c2ccc(-c3cccc(Cl)c3)o2)SC1=S [Rhodanines, 28A] was tested. Which IC50 did it give?
**A.** 470 nM

**Q.** With O=C1/C(=C/c2ccc(-c3ccc(-n4cccc4)cc3)o2)SC(=S)N1Cc1nc2ccccc2[nH]1 [Rhodanines, 29A] as the molecule, how does the IC50 read?
**A.** 540 nM

**Q.** Which IC50 does the source give for O=C(O)Cc1ccc(CN2C(=O)/C(=C/c3ccc(-c4ccc(-c5ccc(C(=O)O)o5)cc4)o3)SC2=S)cc1 [Rhodanines, 30A] here?
**A.** 580 nM

**Q.** O=C(O)CCN1C(=O)/C(=C/c2ccc(-c3ccccc3Cl)o2)SC1=S [Rhodanines, 31A] was tested. Which IC50 did it give?
**A.** 650 nM

**Q.** How did the IC50 turn out when O=C1/C(=C/c2ccc(-c3cccc(Cl)c3)o2)SC(=S)N1Cc1nc2ccccc2[nH]1 [Rhodanines, 32A] was run?
**A.** 670 nM

**Q.** For O=C(O)Cc1ccc(CN2C(=O)/C(=C/c3ccc(-c4ccc(-c5ccccc5)cc4)o3)SC2=S)cc1 [Rhodanines, 33A], which IC50 is on record?
**A.** 730 nM

**Q.** How did the IC50 turn out when O=C(O)c1ccc(-c2ccc(-c3ccc(/C=C4\SC(=S)N(CCc5c[nH]cn5)C4=O)o3)cc2)o1 [Rhodanines, 34A] was run?
**A.** 750 nM

**Q.** With O=C(O)Cc1ccc(CN2C(=O)/C(=C/c3ccc(-c4ccc(-n5cccc5)cc4)o3)SC2=S)cc1 [Rhodanines, 35A] as the molecule, how does the IC50 read?
**A.** 780 nM

**Q.** For O=C(O)CN1C(=O)/C(=C/c2ccc(-c3cccc(Cl)c3)o2)SC1=S [Rhodanines, 36A], which IC50 is on record?
**A.** 820 nM

**Q.** Which IC50 does the source give for O=C(O)CCCN1C(=O)/C(=C/c2ccc(-c3ccc(-c4ccccc4)cc3)o2)SC1=S [Rhodanines, 37A] here?
**A.** 940 nM

**Q.** For O=C(O)CCN1C(=O)/C(=C/c2ccc(-c3cccc(Cl)c3)s2)SC1=S [Rhodanines, 38A], which IC50 is on record?
**A.** 970 nM

**Q.** With O=C1/C(=C/c2ccc(-c3cccc(Cl)c3)o2)SC(=S)N1CCc1c[nH]cn1 [Rhodanines, 39A] as the molecule, how does the IC50 read?
**A.** 1090 nM

**Q.** Which IC50 does the source give for O=C(O)CCCN1C(=O)/C(=C/c2ccc(-c3cccc(Cl)c3)o2)SC1=S [Rhodanines, 40A] here?
**A.** 1220 nM

**Q.** How did the IC50 turn out when O=C1/C(=C/c2ccc(-c3ccc(-c4ccccc4)cc3)o2)SC(=S)N1Cc1nc2ccccc2[nH]1 [Rhodanines, 41A] was run?
**A.** 1400 nM

**Q.** With CC(C(=O)O)N1C(=O)/C(=C/c2ccc(-c3cccc(Cl)c3)o2)SC1=S (stereo unspecified) [Rhodanines, 42A] as the molecule, how does the IC50 read?
**A.** 1410 nM and 4360 nM

**Q.** For O=C1/C(=C/c2ccc(-c3ccc(-n4cccc4)cc3)o2)SC(=S)N1CCc1c[nH]cn1 [Rhodanines, 43A], which IC50 is on record?
**A.** 1850 nM

**Q.** Which IC50 does the source give for O=C(O)Cc1ccc(CN2C(=O)/C(=C/c3ccc(-c4cccc(Cl)c4)o3)SC2=S)cc1 [Rhodanines, 44A] here?
**A.** 1970 nM

**Q.** Which IC50 does the source give for O=C(O)CN1C(=O)/C(=C/c2ccc(-c3cccc(Cl)c3)o2)OC1=S [Rhodanines, 46A] here?
**A.** 3100 nM

**Q.** O=C(O)CCCN1C(=O)/C(=C/c2cccc(-c3ccc(-c4ccccc4)cc3)n2)SC1=S [Rhodanines, 51B] was tested. Which IC50 did it give?
**A.** 5030 nM

**Q.** How did the IC50 turn out when O=C(O)CCCCN1C(=O)/C(=C/c2cccc(-c3ccc(-c4ccccc4)cc3)n2)SC1=S [Rhodanines, 52B] was run?
**A.** 5030 nM

**Q.** O=C(O)CN1C(=O)/C(=C/c2ccc(-c3cccc(Cl)c3)o2)NC1=S [Rhodanines, 53A] was tested. Which IC50 did it give?
**A.** 6100 nM

**Q.** For O=C1/C(=C/c2ccc(-c3ccc(-c4ccccc4)cc3)o2)SC(=S)N1CCc1c[nH]cn1 [Rhodanines, 54A], which IC50 is on record?
**A.** 7700 nM

**Q.** How did the IC50 turn out when O=C(O)CCN1C(=O)C(=CC2CCC(c3ccc(-c4ccccc4)cc3)C2)SC1=S (stereo unspecified) [Rhodanines, 55A] was run?
**A.** 7920 nM

**Q.** How did the IC50 turn out when O=C1/C(=C/c2cccc(-c3ccc(-c4ccccc4)cc3)c2)SC(=S)N1CCc1c[nH]cn1 [Rhodanines, 57B] was run?
**A.** 9380 nM

**Q.** Which IC50 does the source give for O=C1/C(=C/c2ccc(-c3ccc(-c4ccccc4)cc3)cc2)SC(=S)N1CCc1c[nH]cn1 [Rhodanines, 58B] here?
**A.** 12400 nM

**Q.** With O=C(O)Cc1ccc(CN2C(=O)/C(=C/c3ccc(-c4ccc(-c5ccccc5)cc4)cc3)SC2=S)cc1 [Rhodanines, 59B] as the molecule, how does the IC50 read?
**A.** 14800 nM

**Q.** How did the IC50 turn out when O=C(O)CCN1C(=O)/C(=C/c2ccc(-c3ccc(-c4ccccc4)cc3)cc2)SC1=S [Rhodanines, 60B] was run?
**A.** 19600 nM

**Q.** Which IC50 does the source give for O=C(O)Cc1ccc(CN2C(=O)/C(=C/c3cccc(-c4ccc(-c5ccccc5)cc4)n3)SC2=S)cc1 [Rhodanines, 62B] here?
**A.** 35500 nM

**Q.** For O=C1/C(=C/c2cccc(-c3ccc(-c4ccccc4)cc3)n2)SC(=S)N1CCc1c[nH]cn1 [Rhodanines, 63B], which IC50 is on record?
**A.** 117000 nM

**Q.** With O=C(O)Cc1ccc(CN2C(=O)/C(=C/c3cccc(-c4ccc(-c5ccccc5)cc4)c3)SC2=S)cc1 [Rhodanines, 64B] as the molecule, how does the IC50 read?
**A.** 146000 nM

**Q.** CCN1/C(=C/C(C)=C/c2sc3ccccc3[n+]2CC)Sc2ccccc21 [SMR000354813] was tested. Which IC50 did it give?
**A.** 280 nM
